Experimental data as given in patent US20110124614A1, “Methods And Compositions For The Treatment of Autoimmune Disorders” (priority 2008, published 2011).
Marks after values point to notes of the source that are not given here.

Tests used:
Assay type in all cases: in vivo, mouse
[1] = test system: CNS infiltration, demyelination and axonal damage in spinal cord of WT EAE mice; assay: Spinal cord histology (H&E, LFB-PAS, SMI312, SMI32), WT EAE mice
From the text: Spinal cords were dissected out for histology. Intact spinal columns were removed and dissected after fixation in 4% paraformaldehyde, dehydrated and embedding in paraffin. To examine neuroinflammation, the sections were stained with hematoxylin and eosin (H&E). To examine demyelination, the sections were stained with Luxon fast blue plus periodic acid Schiff (LFB-PAS). The mice from the clinical experiment shown in FIG. 2A were euthanized at the end of the experiment and spinal cords were dissected out for histology. Intact spinal cords were removed and dissected after fixation in 4% paraformaldehyde, dehydrated and embedding in paraffin. To examine neuroinflammation, the sections were stained with hematoxylin and eosin (H&E). To examine demyelination, the sections were stained with Luxon fast blue plus periodic acid Schiff (LFB-PAS). To visualize axonal damage, spinal cords were fixed in 4% paraformaldehyde (maass/volume in PBS, pH 7.4) at 4° C. for at least 48 h. The spinal cords were dissected out from the columns, cut into sections 1-2 mm in length from the sampled thoracic or […] cords, dehydrated and embedded in paraffin blocks. Then, 10 μm thick sections were cut from paraffin blocks and mounted onto pre-cleaned microscope slides. The sections were dewaxed and rehydrated sequentially by xylene (2 min), gradient ethanol (100%, 95%, 85%, 2 min each) and PBS (5 min) and then cooked (120° C.) in antigen unmasking agent Trilogy® (Cell Marque, Hot Springs, Ark.) for 10 min in a pressure steamer. […] The slides were counterstained with hematoxylin for 30-60 s to visualize nuclei, washed with tap water, dehydrated, and mounted with Cytoseal™ XYL mounting medium (Richard-Allan Scientific, Kalamazoo, Mich.). The sections were analyzed by light microscopy after staining and recorded with a digital camera.

[2] = test system: splenocytes and lymph node cells of WT EAE mice; assay: Ex vivo T cell proliferation to mMOG-35-55, WT mice
Protocol: (§1) Splenocytes and lymph node cells were harvested ex-vivo from G-1 and E2 implanted mice and cultured in a 96-well flat bottom tissue culture plate at 4×10^5 cells/well in stimulation medium in the presence of APC, irradiated (2500 rad) syngenic thymocytes at a ration of 1:10 (T:APCs) wither with or without mMog 35-55 peptide at varying concentrations. The cells were incubated for 3 days at 37° C. in 7% CO2 and pulsed with 0.5 μCi of [^3H] thymidine (Perkin-Elmer, Boston, Mass.) for the final 18 h of incubation. The cells were harvested onto glass fiber filters, and incorporated radioactivity was measured by a liquid scintillation counter. The cpm values (mean±SD) were calculated from triplicate wells. Stimulation index (SI) was calculated by dividing the experimental cpm by the control cpm.

[3] = test system: EAE in GPR30KO mice; assay: EAE clinical scoring, G-1 or E2 pellets, GPR30KO mice (Example IV)
[4] = test system: EAE in PD-1KO mice; assay: EAE clinical scoring, G-1 or E2 pellets, PD-1KO mice (Example IX)
[5] = test system: EAE in wild-type B6 mice; assay: EAE clinical scoring, G-1 vs E2 pellets at different doses, wild-type B6 mice (Example III); details: for CDI / Daily / Mortality / Onset / Peak / Incidence: 34 days
[6] = test system: T cells of GPR30KO EAE mice; assay: Ex vivo T cell proliferation to mMOG-35-55, GPR30KO mice
Protocol: as §1

[7] = test system: EAE in wild-type B6 mice; assay: EAE clinical scoring, daily s.c. injection of G-1 or E2, wild-type B6 mice
[8] = test system: PD-1 expression in CD4^+FoxP3^+ T cells; assay: PD-1 expression in CD4+FoxP3+ Treg cells by flow cytometry, WT mice (Example VI); details: FIG. 5B
Protocol: Splenocytes or lymph node cells were harvested from placebo-, E2- or G-1 treated mice after EAE induction as shown in FIG. 2A and stained for CD4, FoxP3 and PD-1. The expression levels of Pd-1 were analyzed by gating on CD4^+FoxP3^+ cells from placebo-, E2, or G-1 treated WT mice. For membrane staining, 1 million cells were stained at 4° C. in the dark with appropriate Ab dilutions in staining buffer (PBS containing 0.5% BSA and 0.02% sodium azide), Intracellular staining for FoxP3 was performed following the protocol recommended by eBioscience. Briefly, 4 million cells were surface stained following standard procedures. After washing, the cells were fixed overnight and washed twice with 0.5 ml of permeabilization buffer. The cells were co-stained for 15 min with FcBlock (Becton Dickinson, Franklin Lake., NJ) and IgG PerCp (eBioscience, San Diego, Calif.) followed 30 min later with fluorescent-labeled antibodies to FoxP3 (eBioscience, San Diego, Calif.) or isotype control. The cells were then washed twice with 2 ml of permeabilization buffer and once with 1 ml of staining buffer, and re-suspended in staining buffer. Flow cytometry data were collected on LSRII and FACSCalibur flow cytometers (BD Bioscience, Franklin Lakes, N.J.), and analyzed using FlowJo software (Tree Star, Ashland, Oreg.). Data represent 50,000-100,000 events unless otherwise noted. […] The histogram overlay compares the MFI of PD-1 in CD4^+FoxP3^+ T cells from different treatment groups. The bar charts show the average percentages of PD-1^+ CD4^+FoxP3^+ T cells and the average MFI of PD-1 in CD4^+FoxP3^+ T cells from all mice in each grip[/*P<0.05 or **P<0.01 compared to placebo control.

[9] = GPR30KO, 2.5 mg/60 day E2 pellet, 29 days
[10] = PD-1KO, 2.5 mg/60 day E2 pellet, 20 days
[11] = E2 injection, 1 μg/mouse/day s.c., 20 days

`C[C@]12CC[C@@H]3c4ccc(O)cc4CC[C@H]3[C@@H]1CC[C@@H]2O` [E2, 17β estradiol] was tested, and the “pathological signs of EAE in CNS (immune cell infiltration and demyelination)” value ([1]; E2-treated WT mice, Example II, FIG. 1B) was “no pathological signs of EAE”, the “immune cell infiltration and demyelination in the CNS (H&E, LFB-PAS)” value ([1]; WT mice of FIG. 2A experiment, FIG. 4 upper panels) was “markedly ameliorated” and the “axons in the spinal cords (SMI312 staining)” value ([1]; WT mice, FIG. 4 lower left panel) was “well preserved”. For the same compound, the “axonal damage in spinal cord sections” value ([1]; WT mice, FIG. 4 lower panels) was “reduced the level of axonal damage”, the “SMI32 staining in white matter of spinal cords (ongoing axonal damage)” value ([1]; WT mice, FIG. 4 lower right panel) was “much less SMI32 staining” and the “T-cell responses to MOG peptide” value ([2]; E2 treatment, WT mice, FIG. 1C) was “similarly reduced”. The “ex vivo T cell proliferation responses to mMog-35-55 peptide” value ([2]; G-1 and E2 implanted WT mice, FIG. 2C) was “neither G-1 nor E2 treatment significantly altered”, the “protective effect against EAE (in words)” value ([3]; E2 2.5 mg/60 day pellet, GPR30KO mice) was “only partially offset by the absence of GPR30” and the CDI [3, 9] was 17.2 ± 17.4. For the same compound, the Daily [3, 9] was 3.7 ± 1.3, the Mortality [3, 9] was 0/7 and the Onset [3, 9] was 18.0 ± 1.4. The Peak [3, 9] was 2.5 ± 2.3, the Incidence ([3]; GPR30KO, 2.5 mg/60 day release E2 pellet, 29 days) was 4/7 and the “protection against clinical EAE (in words)” value ([4]; E2 2.5 mg/60 day pellet, PD-1KO mice) was “retained partial efficacy”. For the same compound, the CDI [4, 10] was 16.4 ± 6.3, the Daily [4, 10] was 1.5 ± 0.6 and the Mortality [4, 10] was 0/5. For the same compound, the Onset [4, 10] was 16.4 ± 0.9, the Peak [4, 10] was 4.1 ± 0.8 and the Incidence ([4]; PD-1KO, 2.5 mg/60 day release E2 pellet, 20 days) was 5/5. The CDI ([5]; 0.025 mg E2 pellet) was 37.0 ± 21.6, the Daily ([5]; 0.025 mg E2 pellet) was 1.7 ± 1.0 and the Mortality ([5]; 0.025 mg E2 pellet) was 0/5. The Onset ([5]; 0.025 mg E2 pellet) was 14.8 ± 0.5, the Peak ([5]; 0.025 mg E2 pellet) was 2.8 ± 1.6 and the Incidence ([5]; 0.025 mg/60 day release E2 pellet) was 4/5. The CDI ([5]; 0.1 mg E2 pellet) was 9.1 ± 14.8, the Daily ([5]; 0.1 mg E2 pellet) was 0.3 ± 0.6 and the Mortality ([5]; 0.1 mg E2 pellet) was 0/10. The Onset ([5]; 0.1 mg E2 pellet) was 21.0 ± 6.1, the Peak ([5]; 0.1 mg E2 pellet) was 0.8 ± 1.2 and the Incidence ([5]; 0.1 mg/60 day release E2 pellet) was 3/10**. The CDI ([5]; 2.5 mg E2 pellet) was 0**, the Daily ([5]; 2.5 mg E2 pellet) was 0** and the Mortality ([5]; 2.5 mg E2 pellet) was 0/7. The Peak ([5]; 2.5 mg E2 pellet) was 0**, the Incidence ([5]; 2.5 mg/60 day release E2 pellet) was 0/7** and the “protection from clinical EAE (in words)” value ([5]; 2.5 mg/60 day release E2 pellets) was “completely protected”. The “T-cell responses to MOG peptide” value ([6]; E2 treatment, FIG. 1C) was “similarly reduced”, the “T cell proliferation to mMog-35-55” value ([6]; Example IV) was “Neither G-1 nor E2 affected” and the “protection against EAE (in words)” value ([7]; E2 1 μg/mouse/day s.c. injections) was “partially protective”. For the same compound, the CDI [7, 11] was 10.5 ± 13.9, the Daily [7, 11] was 2.3 ± 0.3 and the Incidence [7, 11] was 3/8*. The Mortality [7, 11] was 1/8, the Onset [7, 11] was 15.3 ± 1.5 and the Peak [7, 11] was 2.3 ± 2.9. For the same compound, the “staining intensity of PD-1 in CD4^+FoxP3^+ cells” value ([8]; spleen of treated WT mice) was “strongly enhanced” and the “conversion of CD4^+FoxP3^+PD-1^− cells to PD-1^+ cells” value ([8]; treated WT mice) was “converted a majority”.
